Laboratory results from PMC9343080, “Distribution- and Metabolism-Based Drug Discovery: A Potassium-Competitive Acid Blocker as a Proof of Concept” (Research, 2022).
Where two headings read alike, the source gives them in different places. Marks after values point to notes of the source that are not given here.

What was measured:
[1] = Tissue distribution of vonoprazan and its metabolites in rats (previous studies); type: in vivo, rat; details: 1 h after oral 2.0 mg/kg, calculated from data of a previous study, ref [40]
[2] = system: histamine-stimulated gastric acid secretion; test: In vivo inhibition of histamine-stimulated acid secretion in anesthetized rats; parameters: species or system rat
Experimental: (§1) 60 SPF SD rats weighing 180-220 g were randomly divided into […]: sham, model, SH-337 (2 mg/kg and 4 mg/kg), vonoprazan (2 mg/kg), males and females are equally divided. Fasting for 24 hours, model and sham groups were treated with deionized water. Drugs and vehicle were given through intragastric administration to rats before anesthesia. 1 h after administration, pylorus was ligated. 5 min later, histamine 2HCl (30 mg/10 mL/kg) was injected subcutaneously. At 3 h after histamine administration, the rats were killed by CO2 asphyxiation. The gastric contents were collected in a 10 mL centrifuge tube after removing their stomachs. Centrifuge at 3000 g for 10 min, and then, determine the total acid output during a 3 h period by 0.1 M NaOH [52, 53]. %Inhibition = (average of modelacid–drugacid)/average of modelacid × 100%.

[3] = system: 2-DG-stimulated gastric acid secretion; test: In vivo inhibition of 2DG-stimulated acid secretion in anesthetized rats; parameters: species or system rat; details: i.g. 2 mg/kg
Experimental: as §1
The 2DG-stimulated acid secretion in anesthetized rats was measured as described as for histamine-stimulated acid secretion, with the exception that 5 min after pylorus ligation, 2-DG (200 mg/10 mL/kg) was injected subcutaneously.

[4] = target: T1, rabbit gastric H+, K+-ATPase (Oryctolagus cuniculus, UniProt P27112); test: In vitro enzymatic activity assay (inorganic phosphate from ATP hydrolysis); type: biochemical
T1 construct: using rabbit gastric H^+, K^+-ATPase; from tissue; host or cells: rabbit stomach (gastric preparation; the method of preparation is not described)
T1 sequence (P27112 whole entry): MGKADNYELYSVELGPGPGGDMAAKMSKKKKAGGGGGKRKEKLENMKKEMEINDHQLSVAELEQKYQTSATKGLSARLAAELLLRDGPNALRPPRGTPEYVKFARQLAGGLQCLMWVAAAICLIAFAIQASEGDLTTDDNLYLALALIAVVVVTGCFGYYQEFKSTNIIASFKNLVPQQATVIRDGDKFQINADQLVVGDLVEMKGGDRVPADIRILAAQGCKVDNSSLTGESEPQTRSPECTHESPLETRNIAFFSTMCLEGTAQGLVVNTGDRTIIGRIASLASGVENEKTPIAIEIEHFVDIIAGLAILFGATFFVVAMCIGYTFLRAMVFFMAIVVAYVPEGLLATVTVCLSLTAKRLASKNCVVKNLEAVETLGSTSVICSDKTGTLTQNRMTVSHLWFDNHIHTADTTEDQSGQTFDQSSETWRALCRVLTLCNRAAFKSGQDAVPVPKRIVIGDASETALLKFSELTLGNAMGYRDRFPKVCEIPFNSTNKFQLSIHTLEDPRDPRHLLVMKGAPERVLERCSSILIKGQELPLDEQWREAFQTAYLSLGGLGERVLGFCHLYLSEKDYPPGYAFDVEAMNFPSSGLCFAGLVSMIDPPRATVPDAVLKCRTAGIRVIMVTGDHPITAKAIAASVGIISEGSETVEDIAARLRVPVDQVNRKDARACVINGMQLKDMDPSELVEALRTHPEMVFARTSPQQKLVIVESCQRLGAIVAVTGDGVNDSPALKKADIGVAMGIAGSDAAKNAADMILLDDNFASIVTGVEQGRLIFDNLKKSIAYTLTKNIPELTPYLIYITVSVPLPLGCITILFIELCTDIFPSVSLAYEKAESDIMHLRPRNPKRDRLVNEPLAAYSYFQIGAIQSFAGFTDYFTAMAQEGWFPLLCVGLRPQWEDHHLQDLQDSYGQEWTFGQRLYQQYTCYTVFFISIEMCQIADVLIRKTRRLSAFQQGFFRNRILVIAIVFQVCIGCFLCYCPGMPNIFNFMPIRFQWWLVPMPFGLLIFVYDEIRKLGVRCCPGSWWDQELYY
T1 sequence (P18597 whole entry partner): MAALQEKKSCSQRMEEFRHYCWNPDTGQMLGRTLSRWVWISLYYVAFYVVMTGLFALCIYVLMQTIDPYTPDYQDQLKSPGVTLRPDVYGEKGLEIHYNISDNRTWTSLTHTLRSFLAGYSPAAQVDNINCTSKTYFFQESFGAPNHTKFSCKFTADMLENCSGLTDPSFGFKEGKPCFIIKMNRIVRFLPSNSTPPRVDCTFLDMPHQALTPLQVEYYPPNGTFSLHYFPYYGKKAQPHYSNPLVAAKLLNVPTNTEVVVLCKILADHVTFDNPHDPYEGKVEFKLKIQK
Experimental: The in vitro enzymatic activity was calculated by measuring the inorganic phosphate produced by the hydrolysis of ATP using rabbit gastric H^+, K^+-ATPase. 0.25 μg enzyme was preincubated at 37°C for 30 min in Tris-HCl buffer (2.0 mL, 50 mM, pH 6.5) containing 5 mM MgCl2, 10 μM valinomycin, 0 or 20 mM KCl, and different concentrations of SH-337 and vonoprazan. The reaction was initiated by adding 5 μL of 5 mM ATP 2Na, and the preparation was incubated for 30 min at 37°C and halted by the addition of 100 μL of malachite green reagent (0.12% malachite green, 7.5% ammonium molybdate, and 11% tween 20 were mixed in a volume ratio of 100 : 25 : 2). H^+, K^+-ATPase activity was calculated after subtracting the enzyme activity in the absence of KCl.

Na+, K+-ATPase = test: In vitro Na+, K+-ATPase activity; type: biochemical
[5] = pH 7.4; ref [35], [38], [39]; cited from earlier work
[6] = ref [43], cited from earlier work
[7] = cited from earlier work; for Drug concentration, Plasma: 2 mg/kg
[8] = Human microsomal stability; type: in vitro ADME; details: human, human liver microsomes; read-out: Metabolic stability (t1/2) human
Experimental: (§2) The in vitro metabolic stabilities of selected compounds were performed using human and rat liver microsomes in triplicate as described previously.

Rat microsomal stability = type: in vitro ADME; details: rat, rat liver microsomes; read-out: Metabolic stability (t1/2) rat
Experimental: as §2

[9] = AUC0–24, rats, i.g. 2 mg/kg vonoprazan, ref [43]
[10] = rats, 1 h after oral administration of 2.0 mg/kg, ref [40]
[11] = rats, i.g. 2 mg/kg vonoprazan, ref [43]

SMILES: CNCc1cc(-c2ccccc2F)n(S(=O)(=O)c2cccnc2)c1.O=C(O)/C=C/C(=O)O [Vonoprazan, 1-[5-(2-fluorophenyl)-1-(pyridin-3-ylsulfonyl)-1H-pyrrol-3-yl]-N-methylmethanamine fumarate]
- C Stomach/CPlasma ([1]; 2 mg/kg): 87.0^e
- Kp at 1 h ([1]; rat, stomach/plasma, read-out: C Stomach/CPlasma): 87
- In vivo efficacy (% inhibition) ([2]; histamine-induced acid secretion in rats, 2 mg/kg, i.g. (Table 2)): 78%
- Total acid output, histamine-stimulated model ([2]; rats, i.g. 2 mg/kg): 0.29 ± 0.43^∗∗ 10^−4 mol
- Inhibition (%), 2-DG-stimulated model [3]: 80%
- Total acid output, 2-DG-stimulated model [3]: 0.62 ± 0.55^∗∗ 10^−4 mol
- IC50 [4]: 0.0655 µM
- IC50 (Na+, K+-ATPase): 47.1 µM
- Fold selectivity (Na+, K+-ATPase; Na+, K+-ATPase over H+, K+-ATPase): 719.4 fold
- log D7.4 [5]: 0.4^a
- ALT and total cholesterol ([6]; 100 mg/kg dose of vonoprazan, males): high ALT and total cholesterol were observed in males
- no observed adverse effect level (NOAEL) [6]: 30 mg/kg
- C Stomach/CLiver (stomach-liver distribution ratio) [7, 9]: 3.2
- C Stomach/CPlasma (stomach-plasma distribution ratio) [7, 9]: 165.0
- C Stomach/CPlasma (stomach-plasma distribution ratio) ([7]; AUC0–24, rats, i.g. 2 mg/kg vonoprazan, ref [43], listed as vonoprazan): 165
- Drug concentration, Plasma [7, 10]: 11.0^c ng/mL
- Drug concentration, Stomach [7, 10]: 957.0^c ng/mL
- Drug concentration, Plasma ([7]; rats, 1 h after oral administration of 2.0 mg/kg, ref [40], listed as vonoprazan): 11 ng/mL
- AUC0–24, Liver [7, 11]: 4039.0 ng equiv. h/mL or g
- AUC0–24, Plasma [7, 11]: 79.0 ng equiv. h/mL or g
- AUC0–24, Stomach [7, 11]: 13085.0 ng equiv. h/mL or g
- half-life [8]: 5.65 h
- half-life (Rat microsomal stability): 0.908 h
